The nature of experiment [1]: Selectivity ratio of IC50 for human A2780 cells to IC50 for chloroquine/mefloquine-resistant Plasmodium falciparum Dd2.
In the next experiment the test system is A2780. In words: Antiproliferative activity against human A2780 cells after 2 days by Alamar blue assay. The experiment is classed as cell-based. As to conditions: A2780, 48 h.
Experiment [2] deals with Plasmodium falciparum. The experiment can be described thus: Antiplasmodial activity against chloroquine/mefloquine-resistant Plasmodium falciparum Dd2 incubated for 72 hrs by SYBR green 1 dye based fluorescence assay. It counts as functional. The following applies: Dd2, 72 h.
For experiment [3], the system named is Plasmodium falciparum. In words: Antiplasmodial activity against chloroquine-sensitive Plasmodium falciparum 3D7 incubated for 72 hrs by SYBR green 1 dye based fluorescence assay. It counts as functional. As to conditions: 3D7, 72 h.

The source of these data is ChEMBL document CHEMBL4052706, “Isolation, structure elucidation, and synthesis of antiplasmodial quinolones from Crinum firmifolium” (Bioorg Med Chem, 2017).

SMILES strings stand for the structures.

On to `CCCCCCCCc1cc(=O)c2ccccc2[nH]1`, for which the “Ratio IC50” value in experiment [1] is given as 3.4. Also, the IC50 (in general, the concentration needed to halve the response being measured) in the experiment with A2780 was determined as 12000 nM; in the experiment with Plasmodium falciparum [2] it was 3650 nM.
As for `CCCC(C)CCCc1cc(=O)c2ccccc2[nH]1` (centres undefined), the results for the IC50 with Plasmodium falciparum [3], in the experiment with A2780 and in the experiment on Plasmodium falciparum [2] were 385 nM, 29000 nM and 330 nM, respectively. For the same compound, the “Ratio IC50” value in experiment [1] is given as 89.
Consider `COc1cc2c(cc1O)c(=O)n1ccc3cccc2c31`, for which the values for the IC50 in the experiment on A2780 and in the experiment with Plasmodium falciparum [2] were above 75000 nM and above 38000 nM, respectively.
On to `CC(C)CCCCCc1cc(=O)c2ccccc2[nH]1`, for which the IC50 with Plasmodium falciparum [3] was 501 nM; in the experiment on A2780, 34000 nM; with Plasmodium falciparum [2] it was 583 nM. Further, the “Ratio IC50” value in experiment [1] is listed as 57.7.
For the compound `CCC(C)CCCCc1cc(=O)c2ccccc2[nH]1` (centres undefined), the IC50 with Plasmodium falciparum [3] came out at 921 nM; in the experiment on A2780, 8700 nM; in the experiment with Plasmodium falciparum [2], 750 nM. The “Ratio IC50” value in experiment [1] turned out to be 11.6.
As to `CNc1ccccc1-c1cc2c(cc1CO)OCO2`, the IC50 in the experiment with A2780 is above 78000 nM; in the experiment on Plasmodium falciparum [2], above 39000 nM.
For `CCCCCCCc1cc(=O)c2ccccc2[nH]1`, in that order: 35000 nM and 1320 nM.
With `C[C@@H]1CC[C@H]2[C@@H](C)C(=O)O[C@@H]3O[C@@]4(C)CC[C@@H]1[C@]32OO4` [ARTEMISININ], the IC50 with Plasmodium falciparum [3] turned out to be 5.9 nM; in the experiment with Plasmodium falciparum [2], 9 nM.
Turning to `CC(=O)O[C@H]1C(=O)[C@@]2(C)[C@H]([C@H](OC(=O)c3ccccc3)[C@]3(O)C[C@H](OC(=O)[C@H](O)[C@@H](NC(=O)c4ccccc4)c4ccccc4)C(C)=C1C3(C)C)[C@]1(OC(C)=O)CO[C@@H]1C[C@@H]2O` [PACLITAXEL], the 50% inhibitory concentration (IC50) with A2780 was found to be 13.7 nM.
